Measurements: PubChem BioAssay AID192 (DTP/NCI, 2004)
“And” between values parts separate entries of the source, which are not always exact repeats. Equal entries are not always repeated. Inconclusive results and toxic doses are left out.

System: BDF1 mice, B16 melanoma ip, median survival T/C
Assay: NCI In Vivo Anticancer Drug Screen. Data for tumor model B16 Melanoma (intraperitoneal) in B6D2F1 (BDF1) mice
Details: endpoint: median survival time, higher = longer survival
How it was run: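 In this screen, activity was judged from survival or tumor size in treated versus vehicle-treated tumor-bearing mice, reported as T/C.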

[1] = dose: 100.0 mg/kg/injection, schedule: Q04DX003 (ip), vehicle: Klucel (hydroxypropylcellulose) (HPC)
[2] = dose: 200.0 mg/kg/injection, schedule: Q04DX003 (ip), vehicle: Klucel (hydroxypropylcellulose) (HPC)
[3] = dose: 400.0 mg/kg/injection, schedule: Q04DX003 (ip), vehicle: Klucel (hydroxypropylcellulose) (HPC)

Question: For CCOC(=O)C1CCCN(S(=O)(=O)c2ccc(C)cc2)c2ccccc2C1=O (stereo not given), which T/C [1] is on record?
Answer: Its T/C is 96 % of control.

Question: And the T/C [2]?
Answer: Its T/C is 88 % of control.

Question: And the T/C [3]?
Answer: The T/C was 95 % of control.

Question: Which results are given for c1ccc(CN2CCOC2)cc1?
Answer: T/C (dose: 12.5 mg/kg/injection, schedule: Q01DX009 (ip), vehicle: saline): 115 % of control; T/C (dose: 25.0 mg/kg/injection, schedule: Q01DX009 (ip), vehicle: saline): 111 % of control; T/C (dose: 50.0 mg/kg/injection, schedule: Q01DX009 (ip), vehicle: saline): 122 % of control; T/C (dose: 100.0 mg/kg/injection, schedule: Q01DX009 (ip), vehicle: saline): 111 % of control

Question: How did the T/C (dose: 0.78 mg/kg/injection, schedule: Q01DX009 (ip), vehicle: saline with Tween-80) turn out when Cc1c2cccc(Sc3ccccc3)c2c2c3c(cccc13)[S+](c1ccccc1)C2 (stereo not given) was run?
Answer: The T/C was 104 % of control.

Question: What about the T/C (dose: 1.56 mg/kg/injection, schedule: Q01DX009 (ip), vehicle: saline with Tween-80) of the same compound?
Answer: Its T/C is 105 % of control.

Question: What about the T/C (dose: 3.13 mg/kg/injection, schedule: Q01DX009 (ip), vehicle: saline with Tween-80) of the same compound?
Answer: Its T/C is 102 % of control.

Question: What about the T/C (dose: 6.25 mg/kg/injection, schedule: Q01DX009 (ip), vehicle: saline with Tween-80) of the same compound?
Answer: Its T/C is 91 % of control and 100 % of control.

Question: How did the T/C (dose: 100.0 mg/kg/injection, schedule: Q01DX009 (ip), vehicle: Klucel (hydroxypropylcellulose) (HPC)) turn out when Cc1cc2nc(CO)[nH]c2cc1C was run?
Answer: Its T/C is 111 % of control.

Question: What about the T/C [1] of the same compound?
Answer: Its T/C is 100 % of control.

Question: And the T/C [2]?
Answer: The T/C was 94 % of control.

Question: What about the T/C [3] of the same compound?
Answer: The T/C was 97 % of control.

Question: How did the T/C (dose: 12.5 mg/kg/injection, schedule: Q01DX001 (ip), vehicle: distilled water + Tween-80) turn out when CCCCCCCCCCCC(=O)NC1CC(O[C@H]2C[C@](O)(C(=O)CO)Cc3c(O)c4c(c(O)c32)C(=O)c2c(OC)cccc2C4=O)OC(C)C1O (stereo not given in full) was run?
Answer: Its T/C is 119 % of control.

Question: And the T/C (dose: 12.5 mg/kg/injection, schedule: Q01DX001 (ip), vehicle: water)?
Answer: Its T/C is 195 % of control.

Question: What about the T/C (dose: 25.0 mg/kg/injection, schedule: Q01DX001 (ip), vehicle: distilled water + Tween-80) of the same compound?
Answer: Its T/C is 189 % of control.

Question: What about the T/C (dose: 25.0 mg/kg/injection, schedule: Q01DX001 (ip), vehicle: water) of the same compound?
Answer: The T/C was 233 % of control.

Question: And the T/C (dose: 50.0 mg/kg/injection, schedule: Q01DX001 (ip), vehicle: distilled water + Tween-80)?
Answer: The T/C was 195 % of control.

Question: And the T/C (dose: 50.0 mg/kg/injection, schedule: Q01DX001 (ip), vehicle: water)?
Answer: The T/C was 257 % of control.

Question: And the T/C (dose: 100.0 mg/kg/injection, schedule: Q01DX001 (ip), vehicle: distilled water + Tween-80)?
Answer: The T/C was 258 % of control.

Question: And the T/C (dose: 100.0 mg/kg/injection, schedule: Q01DX001 (ip), vehicle: water)?
Answer: The T/C was 325 % of control.

Question: And the T/C (dose: 200.0 mg/kg/injection, schedule: Q01DX001 (ip), vehicle: distilled water + Tween-80)?
Answer: Its T/C is 215 % of control.

Question: And the T/C (dose: 200.0 mg/kg/injection, schedule: Q01DX001 (ip), vehicle: water)?
Answer: The T/C was 104 % of control.

Question: What about the T/C (dose: 400.0 mg/kg/injection, schedule: Q01DX001 (ip), vehicle: distilled water + Tween-80) of the same compound?
Answer: The T/C was 231 % of control.

Question: What about the T/C (dose: 400.0 mg/kg/injection, schedule: Q01DX001 (ip), vehicle: water) of the same compound?
Answer: The T/C was 102 % of control.

Question: With CC(CCC(=O)O)(c1cc(Cl)c(O)c(Cl)c1)c1cc(Cl)c(O)c(Cl)c1 as the compound, how does the T/C (dose: 25.0 mg/kg/injection, schedule: Q01DX009 (ip), vehicle: gum acacia) read?
Answer: The T/C was 98 % of control.

Question: And the T/C (dose: 50.0 mg/kg/injection, schedule: Q01DX009 (ip), vehicle: gum acacia)?
Answer: Its T/C is 115 % of control.

Question: And the T/C (dose: 100.0 mg/kg/injection, schedule: Q01DX009 (ip), vehicle: gum acacia)?
Answer: The T/C was 122 % of control.
